What was measured:
[1] = Inhibition of 20s immunoproteasome beta1 caspase-like activity in human spleen using Ac-Pro-Ala-Leu-AMC as substrate after 10 mins by fluorescence assay
[2] = Inhibition of 20s immunoproteasome beta5 chymotrypsin-like activity in human spleen using Suc-Leu-Leu-Val-Tyr-AMC as substrate after 10 mins by fluorescence assay
[3] = Inhibition of 20s constitutive proteasome beta1 caspase-like activity in human erythrocytes using Z-Leu-Leu-Glu-AMC as substrate after 10 mins by fluorescence assay
[4] = Inhibition of 20s immunoproteasome beta2 trypsin-like activity in human spleen using Boc-Leu-Arg-Arg-AMC as substrate after 10 mins by fluorescence assay
[5] = Inhibition of 20s constitutive proteasome beta2 trypsin-like activity in human erythrocytes using Boc-Leu-Arg-Arg-AMC as substrate after 10 mins by fluorescence assay

| SMILES | Ki [1] | Ki [2] | Ki [3] | Ki [4] | Ki [5] |
| --- | --- | --- | --- | --- | --- |
| COc1ccc(/C=C2\NC(=S)N(c3ccccc3)C2=O)cc1OC | 2.64 µM | 2.01 µM |  |  |  |
| O=C1/C(=C/c2ccc(Oc3ccccc3)cc2)NC(=S)N1c1cccc2ccccc12 |  |  | 9.64 µM | 5.57 µM |  |
| COc1cc(/C=C2\NC(=S)N(c3ccccc3)C2=O)ccc1O |  | 11.5 µM |  | 6.71 µM |  |
| COc1ccc(/C=C2\NC(=S)N(c3ccccc3)C2=O)cc1 |  | 10.9 µM |  |  |  |
| CSc1ccc(/C=C2\NC(=S)N(c3ccccc3)C2=O)cc1 |  |  |  | 4.38 µM | 20 µM |
| COc1ccc(/C=C2\NC(=S)N(c3ccccc3)C2=O)cc1O | 6.53 µM | 2.35 µM |  |  |  |
